Results as given in patent publication US20260374750A1, “LIGANDS SPECIFICALLY TARGETING VESICULAR GLUTAMATE TRANSPORTERS FOR SUPER-RESOLUTION IMAGING” (SORBONNE UNIVERSITÉ, priority 2021, published 2026).

Tests used:
BON WT cells = assay: Confocal fluorescence labeling of wild-type BON cells; format: cell-based, human; settings: FIG. 2
Experimental: The experiments are carried out with a BON cell line stably expressing VGLUT3 or a fluorescent VGLUT2 “VGLUT2-venus”. Wild non-transfected BON cells (“wild-type”, BON WT) are used as controls. The cells are cultured in F-12 Nutrient Mixture Ham medium (21765-029, Thermo Fisher Scientific) and Dulbecco's Modified Eagle's Medium High Glucose (DMEM HG, 31966021, Thermo Fisher Scientific; volume/volume), supplemented with 10% fetal calf serum (FCS, 12483012, Thermo Fisher Scientific) and 1% (volume/volume) of a mixture of streptomycin (10 mg/mL)/penicillin (10,000 U/mL) and […] an incubator at 37 °C under 5% CO2. For the transfected clones, the medium is enriched with 0.8 mg/mL Geneticin G418 sulfate (G418, 10131027, Thermo Fisher Scientific).
Two days before each experiment, after trypsinization of the cells from a culture flask, the cell suspension is seeded at 150,000 cells/well, in twelve-well plates on glass coverslips 19 mm in diameter. For observation, these coverslips are placed in a chamber allowing a hermetic fixation of the coverslip in the observation medium, Fluorobrite™ DMEM (A1896701, Thermo Fisher Scientific), a transparent medium.
Before each observation, the cells are incubated at 37 °C in the presence of fluorescent ligands, at previously determined concentrations. The effect of a pretreatment of BON cells with a specific inhibitor of VGLUTs, the substance LSP5-2157, is also performed to study the inhibitory effect of this substance on the labeling of BON cells with the fluorescent ligands of the invention.
The cells are observed in real time under an inverted confocal microscope, with a 63× objective in a room thermostated at 37 °C (Leica TCS SP5; cellular imaging platform of the Paris-Seine Institute of Biology). The studied fluorescent molecules emit in the blue, the cells are excited at 405 nm.
FIG. 2 illustrates the observation and quantification of the BON cells under a confocal microscope, and the inhibition of the fluorescent signal by a pretreatment of the cells with the specific VGLUT inhibitor, LSP5-2157. […] The images are presented in negative. D,H,L and P: Quantification of the treatment effect.

[1] = system: isolated rat cortex synaptic vesicles; assay: Confocal and STED observation of isolated synaptic vesicles incubated with fluorescent ligand; settings: control wells
Experimental: In view of the preliminary results which are obtained, isolated synaptic vesicles are a model of choice in determining the distribution of the transporters VAChT and VGLUT3 at the vesicular level. The major pitfall in the use of this model is the absence of a protocol of use and results regarding their compatibility with super-resolution microscopy. First, the observability of fluorescent labeling in the vesicles was tested, as well as the effect of STED super-resolution microscopy on this model.
The different manipulations were carried out on rat or mouse synaptic vesicles, coming from the striatum or the cortex.
Material and methods: In a manner similar to vesicular reuptake tests, the fluorescent compounds to be studied are diluted in sucrose buffer (TPS 0.32 M) so as to obtain 10 μM of compound in the final observation medium. […]
Isolated rat cortex synaptic vesicles are then incubated in the presence of ATP and the fluorescent ligand G02 at 37 °C then are observed by confocal microscopy as well as super-resolution microscopy (STED). In order to ensure that the observed labeling corresponds to the fluorescent ligands accumulated on the surface or inside the vesicles, control wells were analyzed. No fluorescent signal is detected in wells containing only isolated vesicles (without fluorescent ligand), or only the fluorescent compound (without vesicles).

[2] = system: glutamatergic synaptic vesicles (VGLUT1); assay: Double labeling of isolated glutamatergic synaptic vesicles (VGLUT1 immunolabeling and fluorescent ligand); settings: FIG. 7; confocal and STED
Experimental: Tests were performed in order to check the compatibility of the novel fluorescent ligands of the invention and a labeling by immunohistochemistry. Indeed, ultimately, combining a labeling of VAChT by immunohistochemistry and of VGLUT3 by a fluorescent ligand would allow obtaining more information on the distribution of these vesicular transporters in the striatum.
FIG. 7 illustrates the glutamatergic vesicular labeling by immunohistochemistry and the fluorescent ligand referenced G02 according to the invention. In particular, isolated glutamatergic synaptic vesicles were double labeled by immunolabeling of VGLUT1 (in red) and the fluorescent ligand G02 (in green). The observations were carried out using confocal microscopy and STED. […] In order to more accurately analyze the spot colocalization, it seems more appropriate to use lower and therefore more separated concentrations of vesicles.

Compound	labeling in cytoplasm of BON WT cells (BON WT cells)	precipitation in observation medium [1]	double labeling spots (compatibility with immunohistochemistry) [2]
O=C(O)c1cc(C(=O)O)c2cc(-c3ccc(-c4ccccc4)cc3)ccc2n1 [LSP13-1152-YL152 (L8), 6-(Biphenyl-4-yl) quinoline-2,4-dicarboxylic Acid]	a weak and homogeneous labeling is detected		
Nc1ccc(-c2ccc(C#Cc3cc4cc(C(=O)O)c(=O)oc4cc3O)cc2)cc1 [LSP17-1173, 6-((4′-amino-[1,1′-biphenyl]-4-yl)ethynyl)-7-hydroxy-2-oxo-2H-chromene-3-carboxylic Acid]	a weak and homogeneous labeling is detected	does not precipitate in the observation medium	The obtained spots are clear and resolved
